Values of other authors, collected in patent US12691079B2, “Biodissolvable film for localized and efficient treatment of vulvodynia” (The University of North Carolina at Chapel Hill, priority 2019, dated 2026).

System: vulvar vestibule
Details: topical application to the vulvar vestibule

SMILES: CCN(CC)CC(=O)Nc1c(C)cccc1C [lidocaine]
- duration of relief: 30 to 60 min
